Laboratory results from US20100048575A1, “NOVEL TETRACYCLIC INHIBITORS OF CYSTEINE PROTEASES, THE PHARMACEUTICAL COMPOSITIONS THEREOF AND THEIR THERAPEUTIC APPLICATIONS” (priority 2006, published 2010).

Tests used:
USP8 = target: T1, USP8 (Homo sapiens, UniProt P40818); assay: USP8 activity assay (Ub-AMC); type: biochemical; details: 400 nM Ub-AMC, 630 pM enzyme, pH8.8, 30 min pre-incubation, 60 min at 37° C., sigmoidal fit; read-out: USP8 (inhibition of cysteine protease activity)
T1 construct: His tag (from vector pFastBac-HT) (N); made in house; host or cells: insect cells (Sf9 or High Five), baculovirus
T1 sequence (P40818 1-1118): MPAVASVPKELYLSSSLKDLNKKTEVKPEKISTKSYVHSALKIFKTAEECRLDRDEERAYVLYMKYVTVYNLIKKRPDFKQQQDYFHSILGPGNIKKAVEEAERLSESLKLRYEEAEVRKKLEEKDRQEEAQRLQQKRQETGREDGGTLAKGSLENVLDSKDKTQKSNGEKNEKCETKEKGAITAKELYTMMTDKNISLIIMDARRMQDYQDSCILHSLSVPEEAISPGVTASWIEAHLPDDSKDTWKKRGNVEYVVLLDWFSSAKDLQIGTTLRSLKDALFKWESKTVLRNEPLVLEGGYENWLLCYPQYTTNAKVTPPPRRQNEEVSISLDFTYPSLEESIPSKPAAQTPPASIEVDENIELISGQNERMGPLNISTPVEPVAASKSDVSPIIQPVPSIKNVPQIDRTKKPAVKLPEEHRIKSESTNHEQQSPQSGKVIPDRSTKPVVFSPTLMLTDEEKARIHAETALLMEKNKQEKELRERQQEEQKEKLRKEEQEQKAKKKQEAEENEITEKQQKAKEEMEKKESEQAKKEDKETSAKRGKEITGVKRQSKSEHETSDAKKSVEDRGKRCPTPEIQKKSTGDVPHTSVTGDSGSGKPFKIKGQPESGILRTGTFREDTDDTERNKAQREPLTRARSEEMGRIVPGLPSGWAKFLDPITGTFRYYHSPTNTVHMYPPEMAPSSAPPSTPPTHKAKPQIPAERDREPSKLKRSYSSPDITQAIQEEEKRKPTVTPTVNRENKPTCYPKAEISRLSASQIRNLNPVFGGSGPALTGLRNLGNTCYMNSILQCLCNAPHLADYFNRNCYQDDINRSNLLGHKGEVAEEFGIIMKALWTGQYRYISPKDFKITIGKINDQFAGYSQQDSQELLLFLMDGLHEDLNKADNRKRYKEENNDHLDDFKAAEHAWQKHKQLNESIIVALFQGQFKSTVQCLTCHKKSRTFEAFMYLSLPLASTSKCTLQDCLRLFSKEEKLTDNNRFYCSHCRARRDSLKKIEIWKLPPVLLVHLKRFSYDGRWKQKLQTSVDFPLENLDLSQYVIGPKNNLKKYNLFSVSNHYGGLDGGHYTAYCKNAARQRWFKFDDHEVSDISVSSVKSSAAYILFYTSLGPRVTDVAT
Description: The cDNA encoding USP8 was obtained by PCR amplification from placenta mRNA. USP8 cDNA was subcloned by PCR into a baculovirus expression vector (pFastBac-HT; Invitrogen). A cDNA encoding a mutated USP8 was generated by mutagenic PCR. The corresponding protein encodes a cysteine to alanine substitution at residue 786. The sequences were ascertained by sequencing of the entire open reading frame. Bacmids encoding […] were generated following. DH10bac transposition. The corresponding bacmids were transfected into insect cells (Sf9). Viruses were recovered from culture supernatant and amplified twice. Insect cells (Sf9 or High Five; Invitrogen) were infected for 72 hours. Total cell lysates were harvested and lyzed in lysis buffer (Tris HCl 50 mM pH7.6; 0.75% NP40; 500 mM NaCl; 10% glycerol; 1 mM DTT; 10 mM imidazole; Protease Inhibitor Cocktail; AEBSF 20 μg.ml^−1; Aprotinin 10 μg.ml^−1). Proteins were affinity purified on metal affinity resins (Talon Metal affinity resin; BD Biosciences). Bound materials were extensively washed in wash buffer (50 mM Sodium Phosphate pH 7.0; 300 mM NaCl; 10 mM imidazole; 0.5% Triton X-100; 10% glycerol) and eluted from the resin in 250 mM imidazole-containing wash buffer. Proteins were dialyzed in dialysis buffer (Tris HCl pH 7.6 20 mM; NaCl 200 mM; DTT 1 mM; EDTA 1 mM; 10% Glycerol). Proteins purifications were analyzed on 4-12% NuPAGE (Invitrogen).
USP8 was diluted in USP buffer (50 mM Tris HCl; 0.5 mM EDTA; 5 mM DTT; 0.01% Triton X-100; Bovine Serum Albumin 0.05 mg.ml^−1 pH8.8). Compounds stocks (100 mM) were stored at −20° C. in DMSO.
Reactions were performed as duplicates in Black LJL 96 well plates (HE microplates; Molecular Devices; 20 μl final reaction volume). The substrate concentration for USP8 was 400 nM Ub-AMC (Boston Biochem). The concentrations of the enzyme (USP8) in specificity assays was 630 pM. The concentrations were determined in order to perform specificity assays under initial velocities at fixed substrate concentration. Compounds were pre-incubated with enzymes for 30 minutes at 25° C. Reactions were initiated by addition of substrate to the plates containing the enzymes (+/−compounds) diluted in assay buffer. Reactions were incubated for 60 minutes at 37° C. Reactions were stopped by adding acetic acid (100 mM final). Readings were performed on a Pherastar Fluorescent Reader (BMG). λ Emission 380 nm; λ Excitation=460 nm. Data (mean values +/−standard deviation) were analyzed as % of control (no compound) and plotted as percentage versus the Log of the compound concentration using GraphPad (Prism). Data were fitted to a sigmoidal model (variable slope).

Uch-L3 = target: T2, Uch-L3 (Homo sapiens, UniProt P15374); assay: UCH-L3 activity assay (Ub-AMC); type: biochemical; details: 400 nM Ub-AMC, 13 pM enzyme, 30 min pre-incubation, 60 min at 37° C., sigmoidal fit; read-out: Uch-L3 (inhibition of cysteine protease activity)
T2 sequence (P15374 1-230): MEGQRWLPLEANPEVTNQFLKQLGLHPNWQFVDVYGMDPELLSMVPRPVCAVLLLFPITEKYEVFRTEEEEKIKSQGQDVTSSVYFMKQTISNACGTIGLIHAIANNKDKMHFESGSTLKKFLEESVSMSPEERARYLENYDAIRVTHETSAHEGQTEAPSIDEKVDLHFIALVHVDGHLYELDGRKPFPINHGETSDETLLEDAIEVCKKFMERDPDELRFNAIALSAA
Procedure: Uch-L3 was diluted in USP buffer (50 mM Tris HCl; 0.5 mM EDTA; 5 mM DTT; 0.01% Triton X-100; Bovine Serum Albumin 0.05 mg.ml^−1 pH7.6). Compounds stocks (100 mM) were stored at −20° C. in DMSO. Compounds were tested at the following final concentrations: 100 μM; 33.3 μM; 11.1 μM; 3.7 μM; 1.23 μM; 412 nM; 137 nM; 45.7 nM, 15.2 nM; 5 nM.
Reactions were performed as duplicates in Black LJL 96 well plates (HE microplates; Molecular Devices; 20 μl final reaction volume). The substrate concentration for Uch-L3 was 400 nM Ub-AMC (Boston Biochem). The concentration of the enzyme (Uch-L3) in specificity assays was 13 pM. The concentrations were determined in order to perform specificity assays under initial velocities at fixed substrate concentration. Compounds were pre-incubated with enzymes for 30 minutes at 25° C. Reactions were initiated by addition of substrate to the plates containing the enzymes (+/−compounds) diluted in assay buffer.
Reactions were incubated for 60 minutes at 37° C. Reactions were stopped by adding acetic acid (100 mM final). Readings were performed on a Pherastar Fluorescent Reader (BMG). δ Emission 380 nm; 6 Excitation=460 nm. Data (mean values +/−standard deviation) were analyzed as % of control (no compound) and plotted as percentage versus the Log of the compound concentration using GraphPad (Prism). Data were fitted to a sigmoidal model (variable slope).

Compound `C=CCON=C1c2ccccc2-c2nc3nnc(C)n3nc21` (mixture of isomers) [5c, 1-Methyl-2,3,4,10,10a-pentaaza-cyclopenta[b]fluoren-9-one O-allyl-oxime] has an IC50 (USP8) of 47.7 µM and an IC50 (Uch-L3) of 51 µM.

Compound `C=CCON=C1c2ccccc2-c2nc3nnc(CCCC)n3nc21` (mixture of isomers) [5e, 1-Butyl-2,3,4,110,10a-pentaaza-cyclopenta[b]fluoren-9-one O-allyl-oxime] has an IC50 (USP8) of 35 µM and an IC50 (Uch-L3) of 89 µM.
